The values below come from patent US5688773A, “Method of selectively destroying neoplastic cells” (priority 1994, dated 1997).

One data set deals with C6 cells. As to the kind of experiment: Trypsinization and replating assay. In kind it is cell-based, rat. The settings on record: for Cell number: replated, counted nine days later. The procedure: (§1) Trypsinization and replating assay: To determine the temporal kinetics of CPA-mediated cytotoxicity, 2×10^6 cells were plated onto each 10 cm dish. Twenty-four hours later, 0.5 mM CPA was added and cells were incubated for the times indicated in each figure. Cells were then trypsinized and replated at a density of 2×10^5 cells/10 cm dish. Nine days later, cell numbers were evaluated by Coulter counting.

Data set [1] deals with C6-P450 cells. Put plainly: Trypsinization and replating assay. The settings on record: for Cell number: replated, counted nine days later. It counts as cell-based, rat. The procedure:
as §1

In data set [2] the test system is mixed culture of 9L and 9L-ZP cells. Put plainly: Cytotoxicity toward mixed cultures. It counts as cell-based, rat. The settings on record: Rattus norvegicus, 120 h; equal numbers of 9L and 9L-ZP; 1 mM cyclophosphamide, 5 days; read-out: total cell population eradicated. The procedure: FIG. 28 is a bar graph depicting the cytotoxicity of oxazaphosphorines toward mixed cultures of 9L and 9L-ZP cells. Equal numbers of parental 9L cells were mixed with 9L-ZP cells (total initial cell number=1×10^5 /30 mm tissue culture dish). […] Cell numbers were determined 5 days after beginning drug treatment. Data (mean ±range of duplicates) are expressed as growth ratio (%) relative to drug-free controls.
To test for drug sensitivity, 1×10^5 cells were plated in 30-mm tissue culture plates (Falcon 3046) in duplicate. Drugs were added 18-24 hours after seeding. Cells were allowed to grow for times ranging up to 5 days after drug treatment, and the final cell number was then determined. Cells were rinsed with phosphate buffered saline or Hank's buffered saline, dispersed using trypsin-EDTA (GIBCO/BRL, Inc.), and then counted with a hemocytometer. Results are expressed as a growth ratio, i.e., the number of cells in plates containing drug as a percentage of the corresponding drug-free controls (mean±range of duplicate determinations).

For data set [3], the system named is parental 9L cells co-cultured with 9L-ZP cells. As to the kind of experiment: Co-culture experiments with culture inserts. In kind it is cell-based, rat. Particulars: 1 mM cyclophosphamide, 5 days, no cell contact. As for the experimental part:
Co-culture Experiments: Parental 9L cells were plated in the bottom wells of culture plates (Falcon 3502), and cytochrome P450 2B1-negative or cytochrome P450 2B1-positive cells were plated into 25 mm cell culture inserts (0.45 μm pore size, Falcon 3090). Culture media were removed 18-24 hours later by aspiration. Culture medium without drug (1.0 mL) was added to the bottom well, and 1.0 mL medium containing drug was added to the upper cell culture insert. Cell numbers were determined 5 days later, as described above.

The test system of data set [4] is cytochrome P450 2B1-positive cells (9L-ZP and L450-2). Put plainly: cells. The settings on record: Rattus norvegicus, 120 h.
Data set [5] has as its system C6-P450 cells. Put plainly: Cell proliferation assay.
In a further data set the test system is C6VIKWT tumors. As to the kind of experiment: Ganciclovir sensitivity of subcutaneous tumors in vivo. Further details: species or system nude mice. The procedure:
Ganciclovir therapy was begun when tumor size reached 1 cm in diameter as measured by calipers, by intraperitoneal injections up to 25 mg/kg daily for 14 days. […] Tumor volumes were measured biweekly during treatment over a 24 day period, and were expressed as a percentage compared to the volume at the time treatment was begun.

A further data set concerns C6VIK cells. As to the kind of experiment: Ganciclovir sensitivity, cell proliferation assay. Particulars: Rattus norvegicus, 96 h; four-day period; read-out: Fifty percent inhibition of growth. In kind it is cell-based. The procedure: (§2) Ganciclovir Sensitivity Assays in Culture: To measure the sensitivity of isolated cells, cells were plated in 24-well plates at a density of 10^4 cells per well. The next day, medium was replaced with medium containing ganciclovir (Cytovene, Burroughs Wellcome) at varying concentrations (0-1 μM) in quadruplicate. Four days later, cells were harvested using trypsin and counted using a cell counter (Coulter Electronics Ltd., Luton, United Kingdom). Cell growth is expressed as the percentage of cells compared to the number of cells without treatment (100%).

The next data set relates to C6VIKWT cells. Put plainly: Ganciclovir sensitivity, cell proliferation assay. In kind it is cell-based. Particulars: Rattus norvegicus, 96 h; four-day period; read-out: Fifty percent inhibition of growth. As for the experimental part: as §2
In data set [6] the test system is C6BAG cells co-cultured with C6VIKWT cells. As to the kind of experiment: Delayed co-culture, ganciclovir sensitivity of recipient colonies. In kind it is cell-based, rat. As for the experimental part: (§3) Donor C6VIK or C6VIKWT cells were then added to the cultures at a ratio of 1:2 (5×10^4 recipient cells: 10^5 donor cells). Control cultures consisted of C6BAG or C6BBAG cells alone, or C6BA6 or C6BBAG cells co-plated with "donor" C6BU1 or C6BWT cells, after delay, as above. After 10 days, ganciclovir was added at varying concentrations (0-300 μM) and cells were incubated for another 9-12 days with the drug. Cells were then fixed with 0.5% glutaraldehyde and stained histochemically for beta-galactosidase activity, as described (Price et al., Proc. Natl. Acad. Sci. USA 84:1141-1145 (1987)), and colonies were counted.

For data set [7], the system named is C6BBAG cells co-cultured with C6VIKWT cells. The data set is described as above. In kind it is cell-based. Particulars: Rattus norvegicus, ratio 1:2, read-out: ganciclovir concentration at which 50% of cells grew. As for the experimental part:
as §3

The test system of the next data set is C6BAG cells alone. Put plainly: GCV treatment of subcutaneous tumors. It counts as in vivo, nude mice. Particulars: subcutaneous inoculation.
[8] abbreviates: Table V panel B, survivors of panel A replated, nine days.

With `O=P1(N(CCCl)CCCl)NCCCO1` (centres unmarked) [cyclophosphamide], the Cell number is 11.6 ± 0.4 ×10^6 in the data set with C6 cells (0.5 mM CPA for 0.5 h); 21.7 ± 0.6 ×10^6 in the data set on C6 cells (0.5 mM CPA for 1.5 h); 13.1 ± 1.6 ×10^6 with C6 cells (0.5 mM CPA for 3 h); 12.9 ± 0.7 ×10^6 with C6 cells (0.5 mM CPA for 6 h); 20.4 ± 0.6 ×10^6 in the data set with C6 cells (0.5 mM CPA for 10 h); 17 ± 0.7 ×10^6 in the data set on C6 cells (0.5 mM CPA for 24 h). In addition, the Cell number in the data set with C6 cells (0.5 mM CPA for 32 h) is given as 15.4 ± 0.5 ×10^6; with C6 cells (0.5 mM CPA for 48 h), 18.3 ± 1 ×10^6; in the data set with C6 cells (0.5 mM CPA for 72 h), 20.2 ×10^6; in the data set with C6 cells (0.5 mM CPA for 96 h), 28.8 ± 0.8 ×10^6; in the data set on C6-P450 cells [1] (0.5 mM CPA for 0.5 h) it was 12 ± 1 ×10^6; in the data set on C6-P450 cells [1] (0.5 mM CPA for 1.5 h), 24.1 ± 0.6 ×10^6. The Cell number is 0.2 ×10^6 with C6-P450 cells [1] (0.5 mM CPA for 3 h); 0.1 ×10^6 in the data set with C6-P450 cells [1] (0.5 mM CPA for 6 h); 0.1 ×10^6 with C6-P450 cells [1] (0.5 mM CPA for 10 h); 0.1 ×10^6 with C6-P450 cells [1] (0.5 mM CPA for 24 h); 0 ×10^6 in the data set with C6-P450 cells [1] (0.5 mM CPA for 32 h); 0.1 ×10^6 in the data set with C6-P450 cells [1] (0.5 mM CPA for 48 h). Further, the Cell number with C6-P450 cells [1] (0.5 mM CPA for 72 h) and with C6-P450 cells [1] (0.5 mM CPA for 96 h) was 0 ×10^6 throughout. Moreover, the “Trypsinization and replating assay, cell count” value is 21.48±0.38 in the data set on C6 cells (setting [8]) and 0.11±0.01 in the data set on C6-P450 cells [1] (setting [8]). Also, the “pulse of CPA sufficient to completely inhibit the growth of replated cells” value in the data set with C6-P450 cells [1] (0.5 mM CPA) is 3 h. The “Proliferation of treated cells after replating” value in the data set on C6-P450 cells [1] (0.5 mM, trypsinization and replating) is “completely inhibited”. In addition, the cytotoxicity at 1000 µM in data set [2] was ~80%. For the same compound, the “Killing of both cell populations” value in data set [3] was “killed”. For the same compound, in data set [4], the IC50 was ~70000 nM. The Growth inhibition entry in the data set with C6-P450 cells [5] (0.5 mM CPA, 10 days) is “complete growth inhibition”. Moreover, in the data set on C6-P450 cells [5] (0.5 mM, four days), the “Effect on cell proliferation” value is “complete inhibition of cell proliferation”. The “Cell proliferation assay, number of cells” value in the data set with C6-P450 cells [5] (Table V panel A, 0.5 mM, four days) is on record as 1.15±0.11 ×10^6.
With `Nc1nc(O)c2ncn(COC(CO)CO)c2n1` [ganciclovir], the Tumor growth result with C6VIKWT tumors (ganciclovir for 14 days from tumor size 1 cm) is given as “inhibited subsequent growth completely”. Further, the Tumor regression entry is listed as “regression of tumors in most nude mice” in the data set on C6VIKWT tumors (subcutaneous inoculation, GCV treatment) and “not with C6BAG cells alone” in the data set on C6BAG cells alone. The IC50 in the data set on C6VIK cells was found to be 10 nM; in the data set on C6VIKWT cells, 0.3 nM; in data set [6] (Rattus norvegicus, ratio 1:2, read-out: ganciclovir concentration at which 50% of cells grew), 3000 nM; in [7], 30000 nM. The “Survival of beta-galactosidase-positive recipient colonies” value in data set [6] (ratio 1:2) is “almost complete ablation of the recipient cells”.
